Measurements from ChEMBL document CHEMBL1201862, “PubChem BioAssay data set” (2004).
The source made the active and inactive calls.

What was measured:
Phospholipase A2 = Phospholipase A2 (Homo sapiens, UniProt P04054); type: functional;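 also: confirmatory dose-response counterscreen on phospholipase A2, testing hits that came from an ultra-high-throughput screen for ATG4B inhibitors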
[1] = target: T1, DNA repair protein RAD52 homolog (Homo sapiens, UniProt P43351); type: functional, biochemical
T1 sequence (P43351 whole entry): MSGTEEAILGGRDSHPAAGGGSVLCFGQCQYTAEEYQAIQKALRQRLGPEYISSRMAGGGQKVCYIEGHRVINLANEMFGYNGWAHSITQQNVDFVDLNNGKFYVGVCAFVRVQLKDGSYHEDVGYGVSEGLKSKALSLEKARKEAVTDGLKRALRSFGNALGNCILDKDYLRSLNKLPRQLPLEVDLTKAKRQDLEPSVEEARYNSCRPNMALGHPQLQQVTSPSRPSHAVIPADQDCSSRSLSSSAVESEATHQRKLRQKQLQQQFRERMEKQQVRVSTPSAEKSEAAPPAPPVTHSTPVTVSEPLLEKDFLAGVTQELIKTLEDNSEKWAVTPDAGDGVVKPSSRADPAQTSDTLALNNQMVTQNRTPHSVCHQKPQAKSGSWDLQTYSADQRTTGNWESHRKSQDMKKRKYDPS

[2] = target: Heat shock protein HSP 90-alpha (Homo sapiens, UniProt P07900); type: functional, organism-based
Cysteine protease ATG4B = target: T2, Cysteine protease ATG4B (Homo sapiens, UniProt Q9Y4P1); type: functional;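 also: Fluorescence-based dose-response confirmation assay measuring inhibition of ATG4B activity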
T2 sequence (Q9Y4P1 whole entry): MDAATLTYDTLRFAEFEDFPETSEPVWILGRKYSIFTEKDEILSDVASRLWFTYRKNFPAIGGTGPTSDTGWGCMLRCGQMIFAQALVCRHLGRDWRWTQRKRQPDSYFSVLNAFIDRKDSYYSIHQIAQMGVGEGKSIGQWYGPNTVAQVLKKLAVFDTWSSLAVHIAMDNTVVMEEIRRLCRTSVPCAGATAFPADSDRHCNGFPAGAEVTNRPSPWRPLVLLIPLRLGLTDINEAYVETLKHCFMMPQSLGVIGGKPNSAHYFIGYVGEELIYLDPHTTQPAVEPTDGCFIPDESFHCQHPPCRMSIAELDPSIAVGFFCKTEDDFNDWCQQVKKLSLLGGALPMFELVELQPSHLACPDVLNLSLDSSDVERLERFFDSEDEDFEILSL

[3] = target: T3, High affinity choline transporter 1 (Homo sapiens, UniProt Q9GZV3); assay: CHT inhibitors, dose response, cell-based, 5-point CRC, membrane potential dye (AID 504840); type: functional
T3 sequence (Q9GZV3 whole entry): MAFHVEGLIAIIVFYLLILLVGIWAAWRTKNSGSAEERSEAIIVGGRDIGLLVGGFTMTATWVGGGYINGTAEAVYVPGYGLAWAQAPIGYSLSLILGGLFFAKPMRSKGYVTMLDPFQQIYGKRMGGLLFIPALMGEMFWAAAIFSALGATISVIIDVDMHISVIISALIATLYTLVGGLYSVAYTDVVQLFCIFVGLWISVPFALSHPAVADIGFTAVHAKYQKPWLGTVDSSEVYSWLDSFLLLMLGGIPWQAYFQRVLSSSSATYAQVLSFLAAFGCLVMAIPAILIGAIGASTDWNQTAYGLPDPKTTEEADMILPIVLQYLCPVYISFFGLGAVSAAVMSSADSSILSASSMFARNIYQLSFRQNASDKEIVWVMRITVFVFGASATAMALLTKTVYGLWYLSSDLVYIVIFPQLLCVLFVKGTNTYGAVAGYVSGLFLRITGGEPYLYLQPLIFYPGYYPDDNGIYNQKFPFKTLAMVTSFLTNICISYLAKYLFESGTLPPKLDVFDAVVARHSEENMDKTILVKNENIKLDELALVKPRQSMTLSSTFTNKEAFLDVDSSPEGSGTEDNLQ

[4] = test system: Streptococcus sp. 'group A'; assay: growth inhibition of control SK(-) GAS strain, dose response, counter-screen for streptokinase expression inhibitor project, luminescence, kanamycin, BacTiterGlo, confirmation (AID 1900); type: functional, organism-based
[5] = target: T3, High affinity choline transporter 1; assay: CHT inhibitors, dose response, cell-based, 10-point CRC, membrane potential dye (AID 588401); type: functional;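 also: membrane potential dye fluorescence of choline-evoked depolarization via CHT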
Streptococcus = assay: Group A Streptococcus viability loss, dose response, counter-screen for streptokinase expression inhibitor project, luminescence, BacTiterGlo (AID 1915); type: functional, organism-based;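 also: potency for reduction of bacterial viability or growth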
[6] = Luminescence Cell-Based Dose Response HTS to Identify Activators of Luciferase Translation or Activity in H4 […] Cells. [Related pubchem assays: 1829 (Project Summary), 1814 (Primary HTS)]; type: functional
H4 = assay: Luminescence Cell-Based Dose Response HTS to Identify Activators of 5'UTR Stem-Loop Driven Prion Protein mRNA Translation in H4 Neuroglioblastoma Cells. [Related pubchem assays: 1829 (Project Summary), 1814 (Primary HTS)]; type: functional; settings: Homo sapiens
[7] = Luminescence Cell-Based Dose Confirmation HTS to Identify Activators of 5'UTR Stem-Loop Driven Alpha-Synuclein mRNA Translation in H4 Neuroglioblastoma Cells. [Related pubchem assays: 1829 (Project Summary), 1814 (Primary HTS)]; type: functional
[8] = target: Dual specificity tyrosine-phosphorylation-regulated kinase 1A (Rattus norvegicus, UniProt Q63470); type: biochemical, Homo sapiens
Paired box protein Pax-8 = Paired box protein Pax-8 (Homo sapiens, UniProt Q06710); assay: inhibitors of PAX8-driven TPO luciferase reporter, dose response, RMG-I cells, cherry-pick (AID 687027); type: functional, cell-based;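 also: luciferase reporter driven by Pax8 target thyroperoxidase promoter measured by SteadyGlo luminescence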
Paired box protein Pax-8, sequence (Q06710 whole entry): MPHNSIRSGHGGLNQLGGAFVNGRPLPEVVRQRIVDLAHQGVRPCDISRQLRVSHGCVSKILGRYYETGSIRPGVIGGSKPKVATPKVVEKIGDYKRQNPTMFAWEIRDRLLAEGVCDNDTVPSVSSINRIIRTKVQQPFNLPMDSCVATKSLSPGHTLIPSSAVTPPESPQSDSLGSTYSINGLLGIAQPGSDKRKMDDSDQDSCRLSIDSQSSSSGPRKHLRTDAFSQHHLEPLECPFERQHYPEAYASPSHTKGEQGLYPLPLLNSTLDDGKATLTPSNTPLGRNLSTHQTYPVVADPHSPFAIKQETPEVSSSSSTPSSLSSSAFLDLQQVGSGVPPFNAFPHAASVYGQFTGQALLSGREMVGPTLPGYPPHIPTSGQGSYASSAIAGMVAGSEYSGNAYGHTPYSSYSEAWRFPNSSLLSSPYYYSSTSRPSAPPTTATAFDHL

Genome polyprotein = Genome polyprotein (dengue virus type 2, UniProt P29990); assay: Dengue-2 NS5 methyltransferase inhibitors, primary screen, biochemical, confirmation dose response (AID 588689); type: functional
Genome polyprotein, sequence (P29990 2492-3391 limits assumed): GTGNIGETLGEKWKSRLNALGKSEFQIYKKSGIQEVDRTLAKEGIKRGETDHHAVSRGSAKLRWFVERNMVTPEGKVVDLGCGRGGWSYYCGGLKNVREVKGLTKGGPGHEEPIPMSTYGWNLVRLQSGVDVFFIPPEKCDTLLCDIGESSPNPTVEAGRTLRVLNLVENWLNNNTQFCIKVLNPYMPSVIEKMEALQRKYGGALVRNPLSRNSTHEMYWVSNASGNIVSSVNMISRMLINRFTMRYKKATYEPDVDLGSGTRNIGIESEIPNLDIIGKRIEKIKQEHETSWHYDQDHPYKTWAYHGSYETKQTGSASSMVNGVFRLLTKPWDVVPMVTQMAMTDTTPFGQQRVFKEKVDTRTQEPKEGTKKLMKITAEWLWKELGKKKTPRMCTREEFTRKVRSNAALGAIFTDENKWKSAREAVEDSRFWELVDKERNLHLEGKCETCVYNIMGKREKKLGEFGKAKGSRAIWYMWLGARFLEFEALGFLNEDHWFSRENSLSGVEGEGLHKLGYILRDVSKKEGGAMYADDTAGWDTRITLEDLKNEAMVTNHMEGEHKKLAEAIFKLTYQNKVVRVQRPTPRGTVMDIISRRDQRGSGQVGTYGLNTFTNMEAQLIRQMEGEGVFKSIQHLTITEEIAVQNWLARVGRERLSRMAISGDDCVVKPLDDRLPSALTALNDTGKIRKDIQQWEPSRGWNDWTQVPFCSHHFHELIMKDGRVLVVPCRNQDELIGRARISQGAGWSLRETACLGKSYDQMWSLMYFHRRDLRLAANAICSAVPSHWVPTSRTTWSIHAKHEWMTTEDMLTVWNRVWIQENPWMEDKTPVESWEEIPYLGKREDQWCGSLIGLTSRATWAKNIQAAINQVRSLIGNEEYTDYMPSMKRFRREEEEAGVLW

[9] = Luminescence Cell-Based Dose Retest to Confirm Inhibitors of Cancer Stem Cells. [Related pubchem assays (depositor defined):AID2717, AID2721]; type: functional; settings: Homo sapiens
CHO = assay: cytotoxicity in TLR9-MyD88 CHO cells, dose response, cytotoxicity control for TLR9-MyD88 binding inhibitor project, cell-based, luminescence (AID 588339); type: functional, hamster; settings: Cricetulus griseus;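 also: CHO cells stably coexpressing TLR9 and MyD88 fusions from primary screen; compound exposure lasted 48 hours before viability readout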
Beta Lactamase = Beta Lactamase (Pseudomonas aeruginosa, UniProt Q932Y6); assay: beta-lactamase reporter inhibitor potency, dose response, artefact control for TLR9-MyD88 binding inhibitor project, BLA reporter cells, FRET fluorescence (AID 588341); type: cell-based;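 also: cell based assay in CHO-K1 cells stably expressing beta-lactamase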
Beta Lactamase, sequence (Q932Y6 whole entry): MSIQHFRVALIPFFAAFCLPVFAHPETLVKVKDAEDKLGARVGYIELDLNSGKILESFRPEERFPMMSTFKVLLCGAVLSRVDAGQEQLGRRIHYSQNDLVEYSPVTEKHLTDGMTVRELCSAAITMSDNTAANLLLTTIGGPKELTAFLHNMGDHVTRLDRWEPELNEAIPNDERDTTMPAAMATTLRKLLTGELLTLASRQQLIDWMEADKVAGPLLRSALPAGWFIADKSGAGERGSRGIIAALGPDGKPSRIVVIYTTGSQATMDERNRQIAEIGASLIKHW

[10] = target: T4, Zinc finger protein mex-5 (Caenorhabditis elegans, UniProt Q9XUB2); assay: MEX-5/TCR-2 RNA interaction inhibitors, dose response, biochemical, C. elegans, fluorescence polarization (AID 1960)
T4 sequence (Q9XUB2 whole entry): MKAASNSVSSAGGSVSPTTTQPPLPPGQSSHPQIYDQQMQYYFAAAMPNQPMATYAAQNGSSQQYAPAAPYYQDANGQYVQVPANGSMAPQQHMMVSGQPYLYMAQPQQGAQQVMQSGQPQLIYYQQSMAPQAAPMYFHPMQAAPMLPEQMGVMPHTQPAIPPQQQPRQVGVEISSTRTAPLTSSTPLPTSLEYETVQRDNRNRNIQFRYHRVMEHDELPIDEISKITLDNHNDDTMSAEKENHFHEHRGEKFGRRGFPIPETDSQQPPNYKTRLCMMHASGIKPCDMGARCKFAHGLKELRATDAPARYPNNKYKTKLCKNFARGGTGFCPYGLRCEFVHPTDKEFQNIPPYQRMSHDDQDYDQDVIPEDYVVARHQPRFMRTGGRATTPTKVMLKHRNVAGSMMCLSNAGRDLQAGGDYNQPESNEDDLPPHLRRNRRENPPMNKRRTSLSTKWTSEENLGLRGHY

[11] = target: T5, RNA-binding protein pos-1 (Caenorhabditis elegans, UniProt G5EF15); assay: inhibitors of POS-1/mex-3 RNA binding, dose response, biochemical, fluorescence polarization (AID 1964);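 also: purified POS-1 fused to maltose binding protein made in E. coli; potency of compounds blocking POS-1 binding to fluorescent RNA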
T5 sequence (G5EF15 whole entry): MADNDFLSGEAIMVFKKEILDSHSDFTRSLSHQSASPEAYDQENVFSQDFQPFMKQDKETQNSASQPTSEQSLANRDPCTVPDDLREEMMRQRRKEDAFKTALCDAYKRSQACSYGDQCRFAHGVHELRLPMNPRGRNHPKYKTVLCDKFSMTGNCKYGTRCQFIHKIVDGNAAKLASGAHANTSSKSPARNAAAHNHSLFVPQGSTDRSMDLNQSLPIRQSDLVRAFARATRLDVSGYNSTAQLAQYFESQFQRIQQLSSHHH

[12] = target: T6, Rac GTPase-activating protein 1 (Homo sapiens, UniProt Q9H0H5); assay: MgcRacGAP GTPase-activating activity inhibitors, confirmation, biochemical, ADP Hunter fluorescence, primary and confirmatory (AID 624330); type: functional
T6 sequence (Q9H0H5 whole entry): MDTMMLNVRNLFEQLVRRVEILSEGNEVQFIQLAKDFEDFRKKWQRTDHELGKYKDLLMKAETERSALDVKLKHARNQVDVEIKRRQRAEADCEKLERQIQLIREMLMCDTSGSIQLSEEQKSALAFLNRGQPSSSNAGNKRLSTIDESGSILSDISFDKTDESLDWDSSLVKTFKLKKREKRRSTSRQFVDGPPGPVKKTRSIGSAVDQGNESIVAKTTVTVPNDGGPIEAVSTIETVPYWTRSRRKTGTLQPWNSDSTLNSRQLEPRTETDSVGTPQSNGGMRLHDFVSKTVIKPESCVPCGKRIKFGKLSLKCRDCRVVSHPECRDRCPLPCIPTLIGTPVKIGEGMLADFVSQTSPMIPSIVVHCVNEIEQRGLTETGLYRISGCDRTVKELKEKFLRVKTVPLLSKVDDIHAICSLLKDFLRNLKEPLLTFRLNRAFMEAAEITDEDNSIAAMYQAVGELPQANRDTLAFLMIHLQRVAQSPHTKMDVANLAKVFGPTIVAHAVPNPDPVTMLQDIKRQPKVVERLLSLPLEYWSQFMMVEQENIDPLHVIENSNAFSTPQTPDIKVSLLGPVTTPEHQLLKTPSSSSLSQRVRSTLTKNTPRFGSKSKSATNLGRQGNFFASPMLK

Interleukin-8 = target: T7, Interleukin-8 (Homo sapiens, UniProt P10145); assay: Dose Response confirmation of uHTS small molecule hits for cystic fibrosis induced NFkb Inhibitors in a PAF-induced IL8 counterscreen.; type: functional; settings: read-out: IC50_Mean
T7 sequence (P10145 whole entry): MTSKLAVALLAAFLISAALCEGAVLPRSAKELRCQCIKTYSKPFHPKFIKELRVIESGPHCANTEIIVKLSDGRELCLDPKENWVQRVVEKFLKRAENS

[13] = target: DNA dC->dU-editing enzyme APOBEC-3G (Homo sapiens, UniProt Q9HC16); type: functional;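 also: Dose-response counterscreen measuring inhibition of APOBEC3G DNA deaminase activity, run while confirming APOBEC3A inhibitors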
DNA dC->dU-editing enzyme APOBEC-3G, sequence (Q9HC16 whole entry): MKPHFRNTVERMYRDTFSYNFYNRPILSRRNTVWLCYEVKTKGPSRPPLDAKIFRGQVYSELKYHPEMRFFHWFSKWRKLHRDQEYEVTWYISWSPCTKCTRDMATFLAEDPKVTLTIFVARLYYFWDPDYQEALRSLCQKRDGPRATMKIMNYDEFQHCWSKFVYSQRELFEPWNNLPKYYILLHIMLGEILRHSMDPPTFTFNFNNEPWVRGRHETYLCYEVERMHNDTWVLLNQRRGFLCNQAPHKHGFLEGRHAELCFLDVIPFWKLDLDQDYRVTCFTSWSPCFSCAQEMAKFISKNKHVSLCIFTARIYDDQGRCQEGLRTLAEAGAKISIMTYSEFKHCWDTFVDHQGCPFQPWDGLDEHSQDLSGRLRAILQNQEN

[14] = target: DNA dC->dU-editing enzyme APOBEC-3A (Homo sapiens, UniProt P31941); assay: Dose Response confirmation of small molecule APOBEC3A DNA Deaminase Inhibitors via a fluorescence-based single-stranded DNA deaminase assay. [Related pubchem assays (depositor defined):AID493011, AID493024]; type: functional
DNA dC->dU-editing enzyme APOBEC-3A, sequence (P31941 whole entry): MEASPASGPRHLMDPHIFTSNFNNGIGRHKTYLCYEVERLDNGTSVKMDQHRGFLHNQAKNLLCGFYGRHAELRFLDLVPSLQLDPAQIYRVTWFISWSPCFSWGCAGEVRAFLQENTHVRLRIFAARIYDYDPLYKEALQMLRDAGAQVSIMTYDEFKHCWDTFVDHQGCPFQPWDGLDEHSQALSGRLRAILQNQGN

[15] = HEp-2 cell cytotoxicity, dose response, cytotoxicity control for RSV inhibitor project, HTS (AID 2410); type: functional; settings: human respiratory syncytial virus

Phospholipase A2, sequence (P04054 whole entry): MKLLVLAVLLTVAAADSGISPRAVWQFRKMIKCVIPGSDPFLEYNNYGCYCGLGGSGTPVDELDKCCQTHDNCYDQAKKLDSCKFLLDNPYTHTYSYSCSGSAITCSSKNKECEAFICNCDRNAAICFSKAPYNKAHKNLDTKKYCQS

CCCCCCCCCCCCCCCC[N+](C)(C)CCl
IC50 (Phospholipase A2): 8.15 µM (active)
AC50 [1]: 5.5 µM (active)
AC50 [2]: 5.15 µM (active)
IC50 (Cysteine protease ATG4B): 8.42 µM (active)

O=C(N/N=C1/CCC/C1=C(/O)C(F)(F)F)c1ccccc1O
IC50 [3]: 2.27 µM (active)
EC50 [4]: 1.44 µM (active)
IC50 [5]: 3.57 µM (active)
EC50 (Streptococcus): 2.75 µM (active)

Nc1nc(N)nc(-c2ccc(Cl)cc2)n1
EC50 [6]: > 120 µM (not active)
EC50 (H4): > 120 µM (not active)
EC50 [7]: 12.2 µM (active)
AC50 [8]: 10.6 µM (active)

C=CC(=O)/N=c1\sc2ccccc2n1-c1ccccc1
IC50 [3]: 4.37 µM (active)
AC50 (Paired box protein Pax-8): 1.6 µM (active)
IC50 [5]: 1.78 µM (active)

Cc1ccc(C)c(S(=O)(=O)Nc2ccccc2C(=O)Nc2ccc(S(=O)(=O)Nc3ncccn3)cc2)c1
IC50 (Genome polyprotein): > 100 µM (active)

O=C(Nc1cccc(Cl)c1N1CCCC1)c1cccc(-c2cc3ccccc3oc2=O)c1
IC50 (Phospholipase A2): 0.978 µM (active)
AC50 [9]: 0.262 µM (active)
IC50 (Cysteine protease ATG4B): 0.87 µM (active)

Cc1cccc(N2C(=O)/C(=C\c3ccc(OC(F)F)cc3)c3ccccc3C2=O)c1
AC50 [2]: 4.43 µM (active)
IC50 (CHO): 40.4 µM (inactive)
IC50 (Beta Lactamase): 3.9 µM (active)

O=C(O)c1ccccc1-c1ccc(C=C2C(=O)N(c3ccccc3)C(=S)N(c3ccccc3)C2=O)o1
EC50 [10]: > 300 µM (not active)
IC50 (Genome polyprotein): 12.3 µM (active)
EC50 [11]: > 300 µM (not active)
IC50 [12]: 105 µM (active)

Cc1nc(N)c(C#N)c(-c2cccnc2)c1-c1ccccc1
IC50 (Interleukin-8): > 79 µM (inactive)

O=S(=O)(Nc1nc2ccccc2nc1N1CCc2ccccc2C1)c1ccc(Cl)cc1
IC50 (Phospholipase A2): 10 µM (active)
IC50 (Cysteine protease ATG4B): 9.18 µM (active)

CN(Cc1ccc(Cl)c(Cl)c1)C(=O)C1=CC=CN2CCS(=O)(=O)N=C12
IC50 [13]: 12.2 µM (active)
IC50 [14]: 8.45 µM (active)

Cc1ccc(-c2csc(NC(=O)c3ccccc3Cl)c2C(=O)O)cc1
IC50 [3]: 2.27 µM (active)
IC50 [5]: 1.58 µM (active)
CC50 [15]: 19.4 µM (active)

COc1cccc(CNC(=O)c2cccc(S(=O)(=O)N3CCN(C)CC3)c2)c1
IC50 [13]: 8.69 µM (active)
IC50 [14]: 5.44 µM (active)

COc1ccc(NC(=O)c2cc(-c3ccco3)nc3ccccc23)cn1
IC50 [13]: 22.5 µM (active)
IC50 [14]: 16.9 µM (active)
